Laboratory results published in patent US20260199323A1, “LIGAND COMPOUNDS FOR E3 UBIQUITIN LIGASE, PROTEIN DEGRADERS DEVELOPED ON BASIS OF LIGAND COMPOUNDS, AND USES THEREOF” (GLUETACS THERAPEUTICS (SHANGHAI) CO., LTD., priority 2021, published 2026).
pIC50: −log10 of the molar value. Where two headings read alike, the source gives them in different places.

Columns and labels:
MDA-MB-231 = assay: CCK-8 tumor cell proliferation, MDA-MB-231; type: cell-based, Human; set-up: IC50 for inhibiting the proliferation of tumor cells, MDA-MB-231: scale not given here; conditions: Table 7, designed based on BTK inhibitors, 96 h
In short: (§1)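 Cell viability (CCK-8) after compound exposure; IC50 calculated. Cells seeded, treated after 24 h, maximum dose 10 μM, 5-fold serial dilutions over 10 concentrations.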

Mino = assay: CCK-8 tumor cell proliferation, Mino; type: cell-based, Human; conditions: Table 7, designed based on BTK inhibitors; 72 h
In short: as §1

22RV1 = assay: CCK-8 tumor cell proliferation, 22RV1; set-up: species or system Human; conditions: Table 7, designed based on BTK inhibitors, 96 h
Procedure: (§2) The tumor cells used herein were cultured in a cell culture medium listed in table 4 at 37° C. in an incubator with 5% CO2. Prior to experimentation, all cells used were correctly identified by STR profiling, and tested negative for mycoplasma through routine screenings.
(§3) IC50 values of the compounds of the present disclosure (including the compounds in Tables 1 and 3, and compounds of examples) were measured using the Meilun Cell Counting Kit-8 kit from Dalian Meilun Biotech Co., Ltd. Assay details are as follows: tumor cells were seeded in a 96-well plate at a density listed in Table 5. After 24 h, 100 μL of the inoculated cells were treated with 0.5 μL of the compounds of the present disclosure (including the compounds in Tables 1 and 3, and compounds of examples) at 10 different successively decreasing concentrations (starting at the highest concentration of 10 μM; 5-fold serial dilutions). After the cells were treated with the compounds of the present disclosure for a period of time, the cell viability detection reagent was added to the culture medium for cell viability assessment according to the instructions provided with the CCK-8 kit. […] The growth inhibition of the compounds of the present disclosure on cells was plotted by Prism Graphpad software, and the IC50 values of the compounds of the present disclosure were calculated therefrom.

MV-4-11 = assay: CCK-8 tumor cell proliferation, MV-4-11; type: cell-based, Human; conditions: Table 7, designed based on BTK inhibitors; 72 h
In short: as §1

MM.1S = assay: CCK-8 tumor cell proliferation, MM.1S; type: cell-based; conditions: for pIC50: Homo sapiens, MM1.S
In short: as §1

JEKO-1 = assay: CCK-8 tumor cell proliferation, JEKO-1; set-up: species or system Human; conditions: Table 7, designed based on BTK inhibitors; 96 h
Procedure: as §2, §3

THP-1 = assay: CCK-8 tumor cell proliferation, THP-1; type: cell-based, Human; conditions: Table 7, designed based on BTK inhibitors, 72 h
Procedure: as §2, §3

NCI-H1975 = assay: CCK-8 tumor cell proliferation, NCI-H1975; type: cell-based, Human; conditions: Table 7, designed based on BTK inhibitors; 96 h
In short: as §1

CCRF-CEM = assay: CCK-8 tumor cell proliferation, CCRF-CEM; type: cell-based, Human; set-up: IC50 for inhibiting the proliferation of tumor cells, CCRF-CEM: scale not given here; conditions: for pIC50: Homo sapiens, CCRF-CEM
In short: as §1

Vcap = assay: CCK-8 tumor cell proliferation, Vcap; type: cell-based, Human; conditions: for pIC50: Homo sapiens, VCaP
In short: as §1

Kasumi-1 = assay: CCK-8 tumor cell proliferation, Kasumi-1; type: cell-based, Human; conditions: Table 7, designed based on BTK inhibitors; 72 h
In short: as §1

CAL-62 = assay: CCK-8 tumor cell proliferation, CAL-62; type: cell-based, Human; conditions: Homo sapiens; Table 18, FAK inhibitor based; CAL-62; read-out: IC50 inhibiting proliferation of tumor cells, CAL-62
In short: as §1

SW620 = assay: CCK-8 tumor cell proliferation, SW620; type: cell-based, Human; conditions: Homo sapiens, SW-620; Table 18, FAK inhibitor based; SW620; read-out: IC50 inhibiting proliferation of tumor cells, SW620
In short: as §1

MGC-803 = assay: CCK-8 tumor cell proliferation, MGC-803; conditions: Homo sapiens, Table 18, FAK inhibitor based, MGC803, read-out: IC50 inhibiting proliferation of tumor cells, MGC803
Procedure: as §2, §3

Hep3B2.7-1 = assay: CCK-8 tumor cell proliferation, Hep3B2.7-1; type: cell-based, Human; conditions: Homo sapiens; Table 18, FAK inhibitor based; HEP3B2.7-1; read-out: IC50 inhibiting proliferation of tumor cells, HEP3B2.7-1
In short: as §1

[1] = Table 7, designed based on BTK inhibitors, 72 h
[2] = Table 7, designed based on BTK inhibitors, 96 h
[3] = Table 18, FAK inhibitor based, Vcap, read-out: IC50 inhibiting proliferation of tumor cells, Vcap
[4] = Table 18, FAK inhibitor based, read-out: IC50 inhibiting proliferation of tumor cells, CCRF-CEM
[5] = Table 18, FAK inhibitor based, MM.1S, read-out: IC50 inhibiting proliferation of tumor cells, MM.1S

## Nc1ncnc2c1c(-c1ccc(Oc3ccccc3)cc1)nn2C1CCN(Cc2ccc3c(c2)CN(C2CCC(=O)NC2=O)C3=O)CC1F (stereo not shown) [GT-02652, 3-(5-((4-(4-amino-3-(4-phenoxyphenyl)-1H-pyrazolo[3,4-d]pyrimidin-1-yl)-3-fluoropiperidin-1-yl)methyl)-1-oxoisoindolin-2-yl)piperidine-2,6-dione]
MDA-MB-231
  IC50 for inhibiting the proliferation of tumor cells, MDA-MB-231: A+
Mino
  IC50 for inhibiting the proliferation of tumor cells, Mino: A+
22RV1
  IC50 for inhibiting the proliferation of tumor cells, 22RV1: A+
MV-4-11
  IC50 for inhibiting the proliferation of tumor cells, MV-4-11: A+
MM.1S; [1]
  IC50 for inhibiting the proliferation of tumor cells, MM.1S: A+

## Nc1ncnc2c1c(-c1ccc(Oc3ccccc3)cc1)nn2[C@@H]1CCN(Cc2ccc3c(c2)CN(C2CCC(=O)NC2=O)C3=O)C[C@H]1F (stereo partly drawn) [GT-03287, 3-(5-(((3R,4R)-4-(4-amino-3-(4-phenoxyphenyl)-1H-pyrazolo[3,4-d]pyrimidin-1-yl)-3-fluoropiperidin-1-yl)methyl)-1-oxoisoindolin-2-yl)piperidine-2,6-dione]
MDA-MB-231
  IC50 for inhibiting the proliferation of tumor cells, MDA-MB-231: A+
Mino
  IC50 for inhibiting the proliferation of tumor cells, Mino: A+
22RV1
  IC50 for inhibiting the proliferation of tumor cells, 22RV1: A+
JEKO-1
  IC50 for inhibiting the proliferation of tumor cells, JEKO-1: A+
MM.1S; [1]
  IC50 for inhibiting the proliferation of tumor cells, MM.1S: A+

## Nc1ncnc2c1c(-c1ccc(Oc3ccccc3)cc1)nn2C1CCN(Cc2ccc3c(c2F)CN(C2CCC(=O)NC2=O)C3=O)CC1 (stereo not shown) [GT-03472, 3-(5-((4-(4-amino-3-(4-phenoxyphenyl)-1H-pyrazolo[3,4-d]pyrimidin-1-yl)piperidin-1-yl)methyl)-4-fluoro-1-oxoisoindolin-2-yl)piperidine-2,6-dione]
MDA-MB-231
  IC50 for inhibiting the proliferation of tumor cells, MDA-MB-231: A+
THP-1
  IC50 for inhibiting the proliferation of tumor cells, THP-1: A+
NCI-H1975
  IC50 for inhibiting the proliferation of tumor cells, NCI-H1975: A+
CCRF-CEM; [2]
  IC50 for inhibiting the proliferation of tumor cells, CCRF-CEM: A+
Vcap; [2]
  IC50 for inhibiting the proliferation of tumor cells, Vcap: A+
Kasumi-1
  IC50 for inhibiting the proliferation of tumor cells, Kasumi-1: A+
MM.1S; [1]
  IC50 for inhibiting the proliferation of tumor cells, MM.1S: A+

## CNC(=O)c1ccccc1Nc1cc(Nc2cc(C)c(N3CCN(Cc4cc5c(cc4F)C(=O)N(C4CCC(=O)NC4=O)C5)CC3)cc2OC(C)C)ncc1C(F)(F)F (stereo not shown) [GT-03942, 2-((2-((4-(4-((2-(2,6-dioxopiperidin-3-yl)-6-fluoro-1-oxoisoindolin-5-yl)methyl)piperazin-1-yl)-2-isopropoxy-5-methylphenyl)amino)-5-(trifluoromethyl)pyridin-4-yl)amino)-N-methylbenzamide]
CAL-62
  pIC50: > 7.30
Vcap; [3]
  pIC50: > 7.30
SW620
  pIC50: > 7.30
MGC-803
  pIC50: > 7.30

## CNC(=O)c1ccccc1Nc1cc(Nc2cc(C)c(C3CCN(Cc4ccc5c(c4F)CN(C4CCC(=O)NC4=O)C5=O)CC3)cc2OC(C)C)ncc1C(F)(F)F (stereo not shown) [GT-04079, 2-((2-((4-(1-((2-(2,6-dioxopiperidin-3-yl)-4-fluoro-1-oxoisoindolin-5-yl)methyl)piperidin-4-yl)-2-isopropoxy-5-methylphenyl)amino)-5-(trifluoromethyl)pyridin-4-yl)amino)-N-methylbenzamide]
CCRF-CEM; [4]
  pIC50: > 7.30
CAL-62
  pIC50: > 7.30
Vcap; [3]
  pIC50: > 7.30
SW620
  pIC50: > 7.30
Hep3B2.7-1
  pIC50: > 7.30
MM.1S; [5]
  pIC50: > 7.30
MGC-803
  pIC50: 6.30 to 7.00

## CNC(=O)c1ccccc1Nc1cc(Nc2cc(C)c(C3CCN(Cc4cc5c(cc4F)C(=O)N(C4CCC(=O)NC4=O)C5)CC3)cc2OC(C)C)ncc1C(F)(F)F (stereo not shown) [GT-04080, 2-((2-((4-(1-((2-(2,6-dioxopiperidin-3-yl)-6-fluoro-1-oxoisoindolin-5-yl)methyl)piperidin-4-yl)-2-isopropoxy-5-methylphenyl)amino)-5-(trifluoromethyl)pyridin-4-yl)amino)-N-methylbenzamide]
CCRF-CEM; [4]
  pIC50: > 7.30
CAL-62
  pIC50: > 7.30
Vcap; [3]
  pIC50: > 7.30
SW620
  pIC50: > 7.30
Hep3B2.7-1
  pIC50: > 7.30
MM.1S; [5]
  pIC50: > 7.30
MGC-803
  pIC50: 7.00 to 7.30

## CNC(=O)c1ccccc1Nc1cc(Nc2cc(C)c(N3CCC(N(C)Cc4ccc5c(c4)CN(C4CCC(=O)NC4=O)C5=O)CC3)cc2OC(C)C)ncc1C(F)(F)F (stereo not shown) [GT-04090, 2-((2-((4-(4-(((2-(2,6-dioxopiperidin-3-yl)-1-oxoisoindolin-5-yl)methyl)(methyl)amino)piperidin-1-yl)-2-isopropoxy-5-methylphenyl)amino)-5-(trifluoromethyl)pyridin-4-yl)amino)-N-methylbenzamide]
CAL-62
  pIC50: 7.00 to 7.30
MGC-803
  pIC50: > 7.30

## CNC(=O)c1ccccc1Nc1cc(Nc2cc(C)c(N3CCC(N(C)Cc4ccc5c(c4F)CN(C4CCC(=O)NC4=O)C5=O)CC3)cc2OC(C)C)ncc1C(F)(F)F (stereo not shown) [GT-04091, 2-((2-((4-(4-(((2-(2,6-dioxopiperidin-3-yl)-4-fluoro-1-oxoisoindolin-5-yl)methyl)(methyl)amino)piperidin-1-yl)-2-isopropoxy-5-methylphenyl)amino)-5-(trifluoromethyl)pyridin-4-yl)amino)-N-methylbenzamide]
CAL-62
  pIC50: > 7.30
MGC-803
  pIC50: 7.00 to 7.30

## CNC(=O)c1ccccc1Nc1cc(Nc2cc(C)c(N3CCC(N(C)Cc4cc5c(cc4F)C(=O)N(C4CCC(=O)NC4=O)C5)CC3)cc2OC(C)C)ncc1C(F)(F)F (stereo not shown) [GT-04092, 2-((2-((4-(4-(((2-(2,6-dioxopiperidin-3-yl)-6-fluoro-1-oxoisoindolin-5-yl)methyl)(methyl)amino)piperidin-1-yl)-2-isopropoxy-5-methylphenyl)amino)-5-(trifluoromethyl)pyridin-4-yl)amino)-N-methylbenzamide]
CAL-62
  pIC50: 6.30 to 7.00
MGC-803
  pIC50: > 7.30

## CNC(=O)c1ccccc1Nc1cc(Nc2cc(C)c(N3CCC(N(C)Cc4cc(F)c5c(c4)CN(C4CCC(=O)NC4=O)C5=O)CC3)cc2OC(C)C)ncc1C(F)(F)F (stereo not shown) [GT-04093, 2-((2-((4-(4-(((2-(2,6-dioxopiperidin-3-yl)-7-fluoro-1-oxoisoindolin-5-yl)methyl)(methyl)amino)piperidin-1-yl)-2-isopropoxy-5-methylphenyl)amino)-5-(trifluoromethyl)pyridin-4-yl)amino)-N-methylbenzamide]
CAL-62
  pIC50: 7.00 to 7.30
MGC-803
  pIC50: > 7.30

## C=CC(=O)N1CCC[C@@H](n2nc(-c3ccc(Oc4ccccc4)cc3)c3c(N)ncnc32)C1 [ibrutinib, Ibrutinib, reference compound]
MDA-MB-231; Homo sapiens, MDA-MB-231, read-out: IC50 for inhibiting the proliferation of tumor cells, MDA-MB-231
  pIC50: < 5.00
THP-1; Homo sapiens, THP-1, read-out: IC50 for inhibiting the proliferation of tumor cells, THP-1
  pIC50: < 5.00
22RV1; Homo sapiens, 22Rv1, read-out: IC50 for inhibiting the proliferation of tumor cells, 22RV1
  pIC50: < 5.00
CCRF-CEM; Table 7, designed based on BTK inhibitors, 96 h, read-out: IC50 for inhibiting the proliferation of tumor cells, CCRF-CEM
  pIC50: < 5.00
Vcap; 96 h, Table 7, designed based on BTK inhibitors, 96 h, read-out: IC50 for inhibiting the proliferation of tumor cells, Vcap
  pIC50: < 5.00
MM.1S; Table 7, designed based on BTK inhibitors, 72 h, read-out: IC50 for inhibiting the proliferation of tumor cells, MM.1S
  pIC50: < 5.00
